{
  "source": "patent US20050215609A1",
  "about": "“Novel uses of prostaglandin d2, prostaglandin d2 agonist and prostaglandin d2 antagonist” (priority 2002, published 2005)",
  "key": {"[1]": {"experiment": "Changes in body weight of fasted SD rat after ICV administration (Experiment 3 (2), Table 1)", "type": "in vivo", "details": "SD rat fasted 24 hours, 100 μg", "description": "(§1) The PGD2 antagonist, (Z)-7-[(1R,2R,3S,5S)]-2-(5-hydroxybenzo[b]thiophene-3-ylcarbonylamino)-10-norpinane-3-yl]heptan-5-enonic acid (formula IA-a1) was used to investigate anorexigenic action […]. The sodium salt of this compound was administered to SD rat, fasted for 24 hours, via ICV injection as described above (dosage: 0.1, 1, 10, 100 μg/rat), and the food intake was compared with the group that received vehicle (5% DMSO in saline)."}, "SD rat [2]": {"system": "SD rat", "experiment": "Cumulative food intake of fasted SD rat after ICV administration (Experiment 3 (2), Table 1)", "type": "in vivo", "details": "SD rat fasted 24 hours, 100 μg", "description": "(§2) The weight of food pellets was measured before and after ICV injection and cumulative food intake was calculated.\n(§3) Values were expressed as the mean ± SEM. Analysis of variance (ANOVA) followed by Bonferroni's t-test was used to assess differences among groups. P values less than 0.05 were considered significant.\nas §1"}, "SD rat [3]": {"system": "SD rat", "experiment": "Cumulative food intake of SD rat after intraperitoneal administration (Experiment 3 (2), Table 2)", "type": "in vivo", "details": "i.p., 30 mg/kg", "description": "as §2, §3\nAlso, another group of SD rat was administered the test compound via intraperitoneal administration (30 mg/kg) and the food intake was compared with the group that received vehicle (5% DMSO in saline)."}, "Male ddY mice [4]": {"system": "Male ddY mice", "experiment": "Anorexigenic action of PGD2 antagonist, food intake of mice after ICV administration (Experiment 3 (1))", "type": "in vivo", "details": "BW A868C 0.72 and 7.2 μg/mouse", "description": "as §2\nThe PGD2 antagonist used in Experiment 2, i.e., (±) 3-benzyl-5-(6-carboxyhexyl)-1-(2-cyclohexyl-2-hydroxyethylamino)hydantoin (BW A868C, Sigma-Aldrich), was used to investigate anorexigenic action in mice. The compound was administered to mice via ICV injection (0.72 and 7.2 μg/mouse) as described in Experiment 1, and the food intake was compared with the group that received the vehicle (ACSF)."}, "PGD2 receptor": {"molecular_target": "T1, PGD2 receptor (Mus musculus, UniProt P70263)", "T1 construct": "injected into the third cerebral ventricle; from tissue; host or cells: living ddY mouse, brain (ICV injection into the third cerebral ventricle)", "T1 sequence (P70263 1-357)": "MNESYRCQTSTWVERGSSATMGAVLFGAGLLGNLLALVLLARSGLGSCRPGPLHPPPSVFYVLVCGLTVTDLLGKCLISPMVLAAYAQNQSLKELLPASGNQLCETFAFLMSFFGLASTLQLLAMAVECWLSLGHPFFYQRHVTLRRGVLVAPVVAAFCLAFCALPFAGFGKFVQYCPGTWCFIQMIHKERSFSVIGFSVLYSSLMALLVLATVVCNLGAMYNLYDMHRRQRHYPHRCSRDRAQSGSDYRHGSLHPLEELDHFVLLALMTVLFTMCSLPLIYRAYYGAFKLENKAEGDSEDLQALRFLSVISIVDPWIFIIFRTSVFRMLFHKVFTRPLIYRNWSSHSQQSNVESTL", "experiment": "Effect of PGD2 antagonist on the orexigenic action of PGD2, combined ICV administration (Experiment 2)", "type": "in vivo", "details": "mice, two hours after administration", "description": "as §2, §3\nThe groups, one of which was administered PGD2 alone and the other received combined administration of PGD2/PGD2 antagonist, were used to investigate the effect of PGD2 antagonist on the orexigenic action of PGD2. PGD2 antagonist, (±) 3-benzyl-5-(6-carboxyhexyl)-1-(2-cyclohexyl-2-hydroxyethylamino)hydantoin (BW A868C, Sigma-Aldrich) was used."}, "Male ddY mice [5]": {"system": "Male ddY mice", "experiment": "Food intake of mice after ICV administration of PGD2 (Experiment 1)", "type": "in vivo, mouse", "description": "as §2, §3"}},
  "note": "Structures can show the parent of a compound that is named as a salt.",
  "data": [
    {"smiles": "CC1(C)C2CC1[C@H](NC(=O)c1csc3ccc(O)cc13)[C@@H](C/C=C\\CCCC(=O)O)C2", "note": "(some centres unmarked) [Compund (IA-a1) (Na salt)]", "values": [
      {"measurement": "Changes in body weght (g) 1 hr.", "setting": "[1]; 1 hr.", "result": "0.89 ± 0.79", "unit": "g"},
      {"measurement": "Changes in body weght (g) 2 hr.", "setting": "[1]; 2 hr.", "result": "2.89 ± 1.28", "unit": "g"},
      {"measurement": "Changes in body weght (g) 4 hr.", "setting": "[1]; 4 hr.", "result": "1.07 ± 1.47", "unit": "g"},
      {"measurement": "Changes in body weght (g) 24 hr.", "setting": "[1]; 24 hr.", "result": "7.20 ± 2.60", "unit": "g"},
      {"measurement": "Cululative Food intake (g) 1 hr.", "setting": "SD rat [2]; 1 hr.", "result": "5.18 ± 0.47", "unit": "g"},
      {"measurement": "Cululative Food intake (g) 2 hr.", "setting": "SD rat [2]; 2 hr.", "result": "6.15 ± 0.50", "unit": "g"},
      {"measurement": "Cululative Food intake (g) 4 hr.", "setting": "SD rat [2]; 4 hr.", "result": "6.86 ± 0.49", "unit": "g"},
      {"measurement": "Cululative Food intake (g) 24 hr.", "setting": "SD rat [2]; 24 hr.", "result": "25.71 ± 1.30", "unit": "g"},
      {"measurement": "Cululative Food intake (g) 1 hr.", "setting": "SD rat [3]; 1 hr.", "result": "2.38 ± 0.41", "unit": "g"},
      {"measurement": "Cululative Food intake (g) 2 hr.", "setting": "SD rat [3]; 2 hr.", "result": "4.30 ± 0.67", "unit": "g"},
      {"measurement": "Cululative Food intake (g) 4 hr.", "setting": "SD rat [3]; 4 hr.", "result": "7.85 ± 0.66", "unit": "g"},
      {"measurement": "Cululative Food intake (g) 24 hr.", "setting": "SD rat [3]; 24 hr.", "result": "32.05 ± 1.09", "unit": "g"}
    ]},
    {"smiles": "O=C(O)CCCCCCC1C(=O)N(Cc2ccccc2)C(=O)N1NCC(O)C1CCCCC1", "note": "(racemic) [BW A868C, (±)-3-benzyl-5-(6-carboxyhexyl)-1-(2-cyclohexyl-2-hydroxyethylamino)hydantoin]", "values": [
      {"measurement": "food intake compared to vehicle", "setting": "Male ddY mice [4]", "result": "inhibition of food intake was observed"},
      {"measurement": "effect on the orexigenic action of PGD2 (food intake)", "setting": "PGD2 receptor", "result": "inhibited the orexigenic action of PGD2 completely"}
    ]},
    {"smiles": "CCCCC[C@H](O)/C=C/[C@H]1C(=O)C[C@H](O)[C@@H]1C/C=C\\CCCC(=O)O", "note": "[PGD2, prostaglandin D2]", "values": [
      {"measurement": "food intake versus control group", "setting": "Male ddY mice [5]; 0.2 μg PGD2/mouse, 60 and 120 min after the injection", "result": "significant increase in food intake"},
      {"measurement": "food intake versus control group", "setting": "Male ddY mice [5]; 2 μg PGD2/mouse, 60 and 120 min after the injection", "result": "significant increase in food intake"},
      {"measurement": "food intake versus control group", "setting": "Male ddY mice [5]; 20 μg PGD2/mouse", "result": "the food intake was temporally inhibited shortly after the injection, but the food intake was increased thereafter"}
    ]}
  ]
}
